Measurements reported in patent US8865623B2, “Herbicidally active cyclic diones and derivatives thereof, processes for their preparation, compositions, and method of controlling weeds” (Syngenta Limited, priority 2009, dated 2014).

Tests used:
Type in all cases: in vivo
[1] = tested on: Alopecurus myosuroides (ALOMY); assay: Pre-emergence herbicidal activity, glasshouse pot test; details: Alopecurus myosuroides, 312 h; Rate 250 g/ha; pre-emergence spray; evaluated after 13 days; read-out: Pre-emergence activity ALOMY (100=total damage to plant; 0=no damage to plant)
Method in brief: (§1)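 Pot-grown plants in standard soil received a spray one day post-sowing (pre-emergence) or after eight days' growth (post-emergence). Scoring took place 13 days later on a 0–100 scale, 100 meaning total damage.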

Avena fatua (AVEFA) [2] = assay: as above; details: Avena fatua, 312 h; Rate 250 g/ha; pre-emergence spray; evaluated after 13 days; read-out: Pre-emergence activity AVEFA (100=total damage to plant; 0=no damage to plant)
Method in brief: as §1

[3] = tested on: Echinochloa crus-galli (ECHCG); assay: as above; details: Echinochloa crus-galli, 312 h; Rate 250 g/ha; pre-emergence spray; evaluated after 13 days; read-out: Pre-emergence activity ECHCG (100=total damage to plant; 0=no damage to plant)
Method in brief: as §1

Lolium perenne (LOLPE) [4] = assay: as above; details: Lolium perenne, 312 h; Rate 250 g/ha; pre-emergence spray; evaluated after 13 days; read-out: Pre-emergence activity LOLPE (100=total damage to plant; 0=no damage to plant)
Method in brief: as §1

[5] = tested on: Alopecurus myosuroides (ALOMY); assay: Post-emergence herbicidal activity, glasshouse pot test; details: Alopecurus myosuroides, 312 h, rate 250 g/ha, evaluated after 13 days, glasshouse, read-out: Post-emergence activity ALOMY (100=total damage to plant; 0=no damage to plant)
Method in brief: as §1

Avena fatua (AVEFA) [6] = assay: as above; details: Avena fatua, 312 h, rate 250 g/ha, evaluated after 13 days, glasshouse, read-out: Post-emergence activity AVEFA (100=total damage to plant; 0=no damage to plant)
Method in brief: as §1

[7] = tested on: Echinochloa crus-galli (ECHCG); assay: as above; details: Echinochloa crus-galli, 312 h, rate 250 g/ha, evaluated after 13 days, glasshouse, read-out: Post-emergence activity ECHCG (100=total damage to plant; 0=no damage to plant)
Method in brief: as §1

Lolium perenne (LOLPE) [8] = assay: as above; details: Lolium perenne, 312 h, rate 250 g/ha, evaluated after 13 days, glasshouse, read-out: Post-emergence activity LOLPE (100=total damage to plant; 0=no damage to plant)
Method in brief: as §1

| Structure (SMILES) | pest or weed control at 250 g/ha [1] [%] | pest or weed control at 250 g/ha (Avena fatua (AVEFA) [2]) [%] | pest or weed control at 250 g/ha [3] [%] | pest or weed control at 250 g/ha (Lolium perenne (LOLPE) [4]) [%] | pest or weed control at 250 g/ha [5] [%] | pest or weed control at 250 g/ha (Avena fatua (AVEFA) [6]) [%] | pest or weed control at 250 g/ha [7] [%] | pest or weed control at 250 g/ha (Lolium perenne (LOLPE) [8]) [%] |
| --- | --- | --- | --- | --- | --- | --- | --- | --- |
| CC1(C)OC(C)(C)C(O)=C(c2cc(Oc3cnc4cc(Cl)ccc4n3)ccc2C2CC2)C1=O [Example A-279] | 90 | 100 | 100 | 100 | 100 | 100 | 100 | 100 |
| CCc1ccc(Oc2ccc(C#N)c(Cl)c2)cc1C1=C(O)CC(C)(C)CC1=O [Example A-280] | 70 | 40 | 100 | 70 | 90 | 70 | 100 | 60 |
| CCc1ccc(Oc2ccc(C(F)(F)F)cc2Cl)cc1C1=C(O)CC(C)(C)CC1=O [Example A-281] | 70 | 0 | 100 | 80 | 90 | 80 | 100 | 60 |
| CCc1ccc(Oc2ccc(C(F)(F)F)cc2Br)cc1C1=C(O)CC(C)(C)CC1=O [Example A-282] | 10 | 10 | 100 | 60 | 70 | 60 | 100 | 40 |
| CCc1ccc(Oc2ccc(C(F)(F)F)c(Cl)c2)cc1C1=C(O)CC(C)(C)CC1=O [Example A-283] | 70 | 10 | 90 | 60 | 80 | 90 | 90 | 90 |
| CCc1ccc(Oc2ccc([N+](=O)[O-])c(Cl)c2)cc1C1=C(O)CC(C)(C)CC1=O [Example A-284] | 60 | 0 | 100 | 70 | 60 | 0 | 100 | 60 |
| CCc1ccc(Oc2ncc(C(F)(F)F)cc2F)cc1C1=C(O)CC(C)(C)CC1=O [Example A-285] | 90 | 70 | 100 | 100 | 100 | 100 | 100 | 100 |
| CCc1ccc(Oc2nc3ccccc3s2)cc1C1=C(O)CC(C)(C)CC1=O [Example A-286] | 90 | 40 | 100 | 100 | 100 | 90 | 100 | 100 |
| CCc1ccc(Oc2nc3ccc(Cl)cc3s2)cc1C1=C(O)CC(C)(C)CC1=O [Example A-287] | 100 | 90 | 100 | 100 | 100 | 100 | 100 | 100 |
| CCc1ccc(Oc2ncc(Cl)cn2)cc1C1=C(O)CC(C)(C)CC1=O [Example A-288] | 90 | 60 | 100 | 100 | 100 | 90 | 100 | 90 |
| CCc1ccc(Oc2cnc3ccc(Br)cc3n2)cc1C1=C(O)CC(C)(C)CC1=O [Example A-289] | 60 | 40 | 100 | 90 | 100 | 100 | 100 | 100 |
